The record followed here is patent US20230271142A1, “METHODS OF PREPARING SOLID PARTICULATE MATERIALS” (MICROPORE TECHNOLOGIES LIMITED, priority 2020, published 2023).

“And” between values parts separate entries of the source, which are not always exact repeats. Identical values can stand only once.

What all share (format): physicochemical
Series [1] is described as follows: Crystal size distribution of piroxicam crystals from CXF by laser diffraction (Beckmann Coulter LS-230). The settings on record: 5 μm pores. Here is the method: The CXF was configured with a membrane with 5 μm pores, spaced 45 μm apart in a square grid. A 9.5 mm insert was used. The materials were pumped using gear pumps. The aqueous continuous phase was pumped at […] through the annulus at the center of the membrane. The organic disperse phase was pumped at 17 mL/min through the top port of the device, through the membrane and into the flow of continuous phase. The solution was collected in a 250 ml beaker and stirred with an overhead stirrer at 500 rpm for 10-15 minutes. The crystals were analyzed via microscopy and Laser Diffraction (Beckmann Coulter LS-230). The results are relayed in FIGS. 4 and 5 and Table 2.

Series [2] can be described thus: Effect of aqueous phase surfactant on carbamazepine crystals produced via LDC (Jorin ViPA). The settings on record: for D10 / D50 / D90 / Volume Mean: LDC. On the procedure:
0.4 g of Carbamazepine was dissolved in 10 ml methanol in a beaker at 45° C. to make up the organic phase. In one instance, 0.5% Pluronic PEG P123 (Mn˜5,800) in DI water was used as the aqueous phase. In another instance, 0.5% HPMC (Mn˜10,000) in DI water was used as the aqueous phase.
The LDC was configured with a membrane with 10 μm pores, spaced 200 μm apart in a ring formation. The stirrer speed was set at 14V (1750 rpm), and the organic phase injection rate set at 10 ml/min. The line was primed with organic phase and the aqueous was poured into the stirred cell. The organic phase addition was started and ended when 3 ml of DP was injected.
The solution was left to stir until precipitation was visible. The crystals were analyzed via microscopy and Jorin ViPA. The results are relayed in FIG. 18 and Table 7.

Series [3] is described as follows: Effect of membrane pore diameter on size distribution of telmisartan particles (CXF, laser diffraction). As to conditions: for D10 / D50 / D90 / Volume Mean: CXF, DP 58 mL/min. Here is the method:
A solution of telmisartan in DMSO (0.06 g/ml) was prepared as the organic phase. The aqueous phase was composed of distilled water. The CXF was configured with membranes of different pore sizes that included 5, 10, 20 and 40 μm pores, spaced 200 μm apart in a square grid. A 9.5 mm insert was used. The materials were pumped using gear pumps. The aqueous continuous phase was pumped through the annulus at the center of the membrane at a rate of 464 ml/min. The organic disperse phase was pumped through the top port of the device at a rate of 58 mL/min, through the membrane pores and into the flow of continuous phase. The solution was collected in a beaker and stirred with an overhead stirrer at 500 rpm for 5-10 minutes.

Series [4] is described as follows: Particle size distribution of amorphous telmisartan produced via LDC and CXF (laser diffraction). The settings on record: three runs; for D10 / D50 / D90 / Volume Mean D[4,3]: 10 μm pores, ± standard deviation; for StDev: of the size distribution. On the procedure: Reproducibility of the Production of Amorphous Telmisartan and Translation from Stirred Cell LDC to Continuous Crossflow CXF Devices A solution of telmisartan in DMSO (0.06 g/ml) was prepared for use as the organic phase. An aqueous phase of 50 ml of DI water was prepared. The LDC was configured with a membrane with 10 μm pores, spaced 200 μm apart in a square grid, in a ring sat underneath a stirrer paddle. […] The stirrer was set to […] (1750 rpm). […] The LDC runs were repeated three times. Additionally, a solution of telmisartan in DMSO (0.06 g/ml) was prepared as an organic phase. An aqueous phase was composed of distilled water. A CXF was configured with a membrane with 10 μm pores, spaced 200 μm apart in a square grid. A 9.5 mm insert was used. The materials were pumped using gear pumps. The aqueous continuous phase was pumped through the annulus at the center of the membrane at a rate of 464 ml/min. The organic disperse phase was pumped through the top port of the device at a rate of 58 mL/min, through the membrane pores and into the flow of continuous phase. This preserved the 8:1 CP:DP ratio used in the LDC experiments and generated a similar shear profile. The solution was collected in a beaker and stirred with an overhead stirrer at 500 rpm for 5-10 minutes. The CXF runs were repeated three times. The particle size distributions of material produced on the LDC are shown in Table 6, with errors given as the standard deviations, alongside those for the CXF runs.

Series [5] is described as follows: Effect of disperse phase flow rate on size distribution of telmisartan particles (CXF, laser diffraction). The settings on record: for D10 / D50 / D90 / Volume Mean: CXF, 10 μm pores. On the procedure:
A solution of telmisartan in DMSO (0.06 g/ml) was prepared as the organic phase. The aqueous phase was composed of distilled water. The CXF was configured with a membrane with 10 μm pores, spaced 200 μm apart in a square grid. A 9.5 mm insert was used. The materials were pumped using gear pumps. The aqueous continuous phase was pumped through the annulus at the center of the membrane at […]. The organic disperse phase was pumped through the top port of the device at rates of […], through the membrane and into the flow of continuous phase that was calibrated. The solution was collected in a beaker and stirred with an overhead stirrer at 500 rpm for 5-10 minutes.

The nature of series [6]: Crystal size distribution of paracetamol crystals from CXF by Jorin Visual Particle Size Analyser (ViPA). On the procedure: A solution of paracetamol in ethanol (0.3 g/ml) was prepared, alongside an aqueous phase consisting of 0.5% wt. PEG […] in DI water. The CXF was configured with a membrane with 10 μm pores, spaced 200 μm apart in a square grid. A 9.5 mm insert was used. The materials were pumped using gear pumps. The aqueous continuous phase was pumped through the annulus at the center of the membrane. The organic disperse phase was pumped through the top port of the device calibrated at a rate of […], through the membrane and into the flow of continuous phase at 200 ml/min. The solution was collected in a beaker and stirred with an overhead stirrer at 500 rpm for 10-15 minutes. The experiment was repeated 3 times. The resultant crystal suspension was examined via microscopy (see FIG. 1), and Jorin Visual Particle Size Analyser (ViPA) for crystal size and uniformity, (FIG. 2 and Table 1).

Series [7] in a line: Crystal size distribution of metformin crystals produced via LDC (Jorin ViPA). Here is the method:
0.4 g of Metformin was dissolved in 10 ml methanol in a beaker to make up the organic phase. 0.5% Tween 20 in […] was used as the aqueous phase.
The LDC was configured with a membrane with 10 μm pores, spaced 200 μm apart in a ring-shape. The stirrer speed was set at 14V (1750 rpm), and the injection rate set at 10 ml/min. The line was primed with organic phase and the aqueous phase was poured into the dispersion cell. Addition of the organic phase was started and ended when 3 ml of DP was injected.
The solution was left to stir until precipitation was visible. The crystals were analyzed via microscopy and Jorin ViPA. The results are relayed in FIG. 23 and Table 9.

Setting [8] is: volume distribution, ethanol solution into 0.5% HPMC water.
The mark [9] stands for this setting: aqueous phase 0.5% HPMC (form III).
The mark [10] stands for this setting: aqueous phase 0.5% P123 (form II).
Where [11] appears, read: 10 μm pore membrane (average of three).
Setting [12] is: disperse phase 58 mL/min (average of three).
Where [13] appears, read: Average ± Standard Deviation of 3 runs.
Where [14] appears, read: CXF, 10 μm pores, Average ± Standard Deviation of 3 runs.
Where [15] appears, read: volume distribution, CXF, 10 μm pores, ethanol solution into 0.5% PEG P123 water, single runs 1-3.
The mark [16] stands for this setting: 10 μm pores, methanol solution into 0.5% Tween 20 in acetonitrile.

In series [1], `CN1C(C(=O)Nc2ccccn2)=C(O)c2ccccc2S1(=O)=O` [Piroxicam] showed a Span of 1.78. Besides, the Mean in series [1] (volume distribution) stood at 6.978 μm. In addition, in series [1] (setting [8]), the D10 amounted to 1.240 μm, the D50 turned out to be 6.562 μm and the D90 is reported as 12.96 μm.

Turning to `NC(=O)N1c2ccccc2C=Cc2ccccc21` [Carbamazepine], in series [2] (0.5% HPMC), the Span is 1.10. In series [2] (0.5% P123), this molecule showed a Span of 0.81. In series [2] (setting [9]), the D10 was 28.90 μm, the D50 was 44.92 μm, the D90 is 78.16 μm and the Volume Mean is recorded as 48.84 μm. In series [2] (setting [10]), this molecule had a D10 of 29.92 μm, a D50 of 42.37 μm, a D90 of 64.09 μm and a Volume Mean of 45.79 μm.

In series [3] (5 μm pore membrane), `CCCc1nc2c(C)cc(-c3nc4ccccc4n3C)cc2n1Cc1ccc(-c2ccccc2C(=O)O)cc1` [Telmisartan, telmisartan] showed a C.V of 53.31%, a D10 of 6.506 μm, a D50 of 13.01 μm and a D90 of 22.83 μm. In series [3] (5 μm pore membrane), the “Volume Mean” value is 14.31 μm. Besides, in series [3] (setting [11]), the C.V stood at 50.06%, the D10 is given as 7.359 μm, the D50 stood at 15.66 μm and the D90 stood at 28.00 μm. Moreover, the “Volume Mean” value in series [3] (setting [11]) worked out at 17.11 μm. Moreover, in series [3] (20 μm pore membrane), the C.V is 57.77%, the D10 is listed as 6.555 μm, the D50 is reported as 18.72 μm and the D90 is on record as 37.68 μm. The “Volume Mean” value in series [3] (20 μm pore membrane) worked out at 20.60 μm. In series [3] (40 μm pore membrane), this molecule came in with a C.V of 56.41%, a D10 of 8.451 μm, a D50 of 23.16 μm and a D90 of 45.99 μm. Also, in series [3] (40 μm pore membrane), the “Volume Mean” value was 25.42 μm. Also, in series [4] (CXF), the D10 is 7.359 ± 1.096 μm, the D50 came to 15.66 ± 1.558 μm, the D90 was 28.0 ± 2.091 μm and the “Volume Mean D[4,3]” value came to 17.11 ± 1.538 μm. In series [4] (CXF), this molecule registered a CV of 50.57 ± 3.09%, a Span of 1.389 ± 0.070 and a StDev of 8.565 ± 0.275 μm. Besides, in series [4] (LDC), the D10 was found to be 6.952 ± 0.357 μm, the D50 is reported as 14.32 ± 0.693 μm, the D90 was 26.43 ± 1.268 μm and the “Volume Mean D[4,3]” value was 15.79 ± 0.755 μm. Also, in series [4] (LDC), the CV is recorded as 51.07 ± 0.937%, the Span worked out at 1.360 ± 0.028 and the StDev was 8.066 ± 0.430 μm. In addition, in series [5] (disperse phase 15 mL/min), the D10 was 4.653 μm, the D50 was determined as 10.11 μm, the D90 is reported as 15.76 μm and the “Volume Mean” value is given as 10.17 μm. This molecule also came in with a Span in series [5] (disperse phase 15 mL/min) of 1.099. Also, in series [5] (disperse phase 29 mL/min), the D10 was 4.981 μm, the D50 is listed as 10.09 μm, the D90 is on record as 18.9 μm and the “Volume Mean” value was found to be 11.79 μm. This molecule registered a Span in series [5] (disperse phase 29 mL/min) of 1.379. Moreover, in series [5] (setting [12]), the D10 is 7.359 μm, the D50 amounted to 15.66 μm, the D90 is recorded as 28.00 μm and the “Volume Mean” value amounted to 17.11 μm. In series [5] (setting [12]), this molecule returned a Span of 1.318.

In series [6] (setting [13]), `CC(=O)Nc1ccc(O)cc1` [Paracetamol, paracetamol] gave a CV % of 39.07 ± 1.660% and a Span of 1.100 ± 0.066. The “Volume Mean D[4,3]” value in series [6] (CXF, 10 μm pores, ethanol solution into 0.5% PEG P123 water, single runs 1-3) is 45.37 μm and 44.28 μm and 41.17 μm. In addition, in series [6] (setting [14]), the D10 was found to be 23.81 ± 0.894 μm, the D50 is given as 40.42 ± 0.573 μm, the D90 was 68.31 ± 3.604 μm and the “Volume Mean D[4,3]” value was determined as 43.61 ± 1.258 μm. Besides, in series [6] (CXF, 10 μm pores, single runs 1-3), the Span was 1.232 and 1.044 and 1.024. Further, in series [6] (of the size distribution, Average ± Standard Deviation of 3 runs), the StDev is 17.05 ± 1.021 μm. In series [6] (setting [15]), the D10 is 24.12 μm and 25.18 μm and 22.13 μm; the D50 was 41.15 μm and 40.82 μm and 39.29 μm; the D90 was 74.81 μm and 67.77 μm and 62.36 μm.

In turn, `CN(C)C(=N)N=C(N)N` [Metformin] yielded a Span in series [7] of 1.09. Also, in series [7] (10 μm pores), the “Size Mean” value stood at 12.430 μm and the “Volume Mean” value came to 53.10 μm. In addition, in series [7] (setting [16]), the D10 is on record as 25.63 μm, the D50 stood at 50.80 μm and the D90 is given as 81.03 μm.
